According to US8106050B2, “Derivatives of pyrrolo-pyrazines having a kinase inhibitory activity and their biological applications” (Centre National de la Recherche Scientifique (C.N.R.S.), priority 2002, dated 2012):
Counter-ions that a name gives are not always drawn. Like-named read-outs stand apart in the source and are kept apart here.

What was measured:
CDK1/cyclin B = CDK1/cyclin B kinase assay (histone H1, 15 μM ATP); assay type: biochemical, starfish (Marthasterias glacialis); conditions: 15 μM ATP, Table 1
Description: (§1) Blank values were subtracted and activities calculated as pmoles of phosphate incorporated for a 10 min. incubation. […] Controls were performed with appropriate dilutions of dimethylsulfoxide. In a few cases phosphorylation of the substrate was assessed by autoradiography after SDS-PAGE.
CDK1/cyclin B was extracted in homogenisation buffer from M phase starfish (Marthasterias glacialis) oocytes and purified by affinity chromatography on p9^CKShs1-sepharose beads, from which it was eluted by free p9^CKShs1. […] ATP (3,000 Ci/mmol; 1 mCi/ml) in a final volume of 30 μl. After 10 min. incubation at 30° C., 25 μl aliquots of supernatant were spotted onto P81 phosphocellulose papers and treated as described above.
(§2) Kinases were assayed as above described in the presence of increasing concentrations of aloisines.

GSK-3α/β = assay: GSK-3 kinase assay (GS-1 peptide, 15 μM ATP); assay type: biochemical, porcine; conditions: read-out: IC50 GSK-3
Description: as §1
GSK-3α/β was either purified from porcine brain or expressed in and purified from insect Sf9 cells. […] ATP (3,000 Ci/mmol; 1 mCi/ml) in a final volume of 30 μl. After 30 min. incubation at 30° C., 25 μl aliquots of supernatant were spotted onto 2.5×3 cm pieces of Whatman P81 phosphocellulose paper, and, 20 sec. later, the filters were washed five times (for at least 5 min. each time) in a solution of 10 ml phosphoric acid/liter of water. The wet filters were counted in the presence of 1 ml ACS (Amersham) scintillation fluid.
as §2

CDK5/p25 = CDK5/p25 (Homo sapiens, UniProt Q00535); assay: CDK5/p25 kinase assay (histone H1, 15 μM ATP); assay type: biochemical, mammalian; conditions: Table 1
Description: as §1
CDK5/p25 was reconstituted by mixing equal amounts of recombinant mammalian CDK5 and p25 expressed in E. coli as GST (Glutathione-S-transferase) fusion proteins and purified by affinity chromatography on glutathione-agarose (p25 is a truncated version of p35, the 35 kDa CDK5 activator). Its activity was assayed in buffer C as described for CDK1/cyclin B.
as §2

CDK5/p25, sequence (Q00535 whole entry, species assumed): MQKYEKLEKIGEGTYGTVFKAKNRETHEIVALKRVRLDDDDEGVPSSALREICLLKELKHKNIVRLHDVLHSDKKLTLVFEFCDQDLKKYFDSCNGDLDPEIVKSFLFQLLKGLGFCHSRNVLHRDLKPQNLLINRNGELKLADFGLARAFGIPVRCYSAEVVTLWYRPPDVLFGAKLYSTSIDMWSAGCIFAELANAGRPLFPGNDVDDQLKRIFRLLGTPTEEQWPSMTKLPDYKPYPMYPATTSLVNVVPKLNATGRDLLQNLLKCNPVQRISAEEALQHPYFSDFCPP
CDK5/p25, sequence (Q15078 99-307 partner limits assumed, species assumed): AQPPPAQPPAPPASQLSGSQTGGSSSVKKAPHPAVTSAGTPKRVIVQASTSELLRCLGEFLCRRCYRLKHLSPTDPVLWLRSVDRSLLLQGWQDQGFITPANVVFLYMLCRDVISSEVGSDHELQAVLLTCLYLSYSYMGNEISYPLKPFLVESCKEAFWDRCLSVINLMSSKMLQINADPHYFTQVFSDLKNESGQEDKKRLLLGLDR

| SMILES | IC50 (CDK1/cyclin B) [nM] | melting point | IC50 (GSK-3α/β; 15 μM ATP, Table 1) [nM] | IC50 (CDK5/p25) [nM] | IC50 (GSK-3α/β) [nM] |
| --- | --- | --- | --- | --- | --- |
| c1coc(-c2cc3nccnc3[nH]2)c1 [1 (RP19), 6-(2-Furyl)[5H]pyrrolo[2,3-b]pyrazine] | 12000 | 232.6 °C | 15000 | 9300 |  |
| c1csc(-c2cc3nccnc3[nH]2)c1 [2 (RP6), 6-(2-Thienyl)[5H]pyrrolo[2,3-b]pyrazine] | 7000 | 260.3 °C | 1200 | 2000 |  |
| c1cnc2[nH]c(-c3ccsc3)cc2n1 [3 (RP128)] | 2300 | 230 °C (dec.) | 800 | 1000 |  |
| c1ccc(-c2cc3nccnc3[nH]2)nc1 [4 (RP13), 6-(2-Pyridyl)[5H]pyrrolo[2,3-b]pyrazine] | 21000 | 233.1 °C | 15000 | 53000 |  |
| c1ccc(-c2cc3nccnc3[nH]2)cc1 [5 (RP7), 6-Phenyl[5H]pyrrolo[2,3-b]pyrazine] | 5000 | 216 °C | 2300 | 4000 |  |
| c1ccc2c(-c3cc4nccnc4[nH]3)cccc2c1 [6 (RP17), 6-(1-Naphtyl) [5H]pyrrolo[2,3-b]pyrazine] | > 100000 | 216.4 °C | 27000 |  |  |
| Cc1cnc2cc(-c3ccccc3)[nH]c2n1 [8 (RP18), 3-Methyl-6-phenyl[5H]pyrrolo[2,3-b]pyrazine] | 69000 | 261.8 °C | > 100000 |  |  |
| Clc1ccc(C2(c3cc4nccnc4[nH]3)CC2)cc1 [9 (RP124), 6-[1-(4-Chlorophenyl)-1-cyclopropyl][5H]pyrrolo[2,3-b]pyrazine] | 30000 | 189.7 °C | 1000 |  |  |
| COc1ccccc1-c1cc2nccnc2[nH]1 [10 (RP9), 6-(2-Methoxyphenyl)[5H]pyrrolo[2,3-b]pyrazine] | 20000 | 156.9 °C | 3300 |  |  |
| Br.Oc1ccccc1-c1cc2nccnc2[nH]1 [11 (RP109), 6-(2-Hydroxyphenyl)[5H]pyrrolo[2,3-b]pyrazine hydrobromide] | 2500 | 250 °C (dec.) | 6500 | 3000 |  |
| COc1cccc(-c2cc3nccnc3[nH]2)c1 [12 (RP10), 6-(3-Methoxyphenyl)[5H]pyrrolo[2,3-b]pyrazine] | 13000 | 195.7 °C | 3200 |  |  |
| Br.Oc1cccc(-c2cc3nccnc3[nH]2)c1 [13 (RP134), 6-(3-Hydroxyphenyl)[5H]pyrrolo[2,3-b]pyrazine hydrobromide] | 2500 | 258 °C (dec.) |  |  |  |
| Br.Oc1ccc(-c2cc3nccnc3[nH]2)cc1 [15 (RP26), 6-(4-Hydroxyphenyl) [5H]pyrrolo[2,3-b]pyrazine hydrobromide] | 1200 | 255 °C (dec.) |  |  | 1200 |
| COc1cc(OC)cc(-c2cc3nccnc3[nH]2)c1 [16 (RP21), 6-(3,5-Dimethoxyphenyl)[5H]pyrrolo[2,3-b]pyrazine] |  | 216.7 °C | 60000 | > 100000 |  |
| COc1cc(-c2cc3nccnc3[nH]2)cc(OC)c1OC [17 (RP16), 6-(3,4,5-Trimethoxyphenyl)[5H]pyrrolo[2,3-b]pyrazine] |  | 231.7 °C | 85000 | > 100000 |  |
| Fc1ccc(-c2cc3nccnc3[nH]2)cc1 [18 (RP76), 6-(4-Fluorophenyl)[5H]pyrrolo[2,3-b]pyrazine] | 2300 | 244 °C (dec.) | 1900 |  |  |
| Clc1ccc(-c2cc3nccnc3[nH]2)cc1 [19 (RP14), 6-(4-Chlorophenyl)[5H]pyrrolo[2,3-b]pyrazine] | 1800 | 250 °C (dec.) |  |  |  |
| Brc1ccc(-c2cc3nccnc3[nH]2)cc1 [21 (RP77), 6-(4-Bromophenyl) [5H]pyrrolo[2,3-b]pyrazine] |  | 256 °C (dec.) | 6000 | > 100000 |  |
| N#Cc1ccc(-c2cc3nccnc3[nH]2)cc1 [23 (RP20), 6-(4-Cyanophenyl) [5H]pyrrolo[2,3-b]pyrazine] | 3000 | 340 °C (dec.) | 4800 |  |  |
| Cc1ccc(-c2cc3nccnc3[nH]2)cc1 [24 (RP78), 6-(4-Methylphenyl)[5H]pyrrolo[2,3-b]pyrazine] | 3000 | 265.4 °C | 2600 |  |  |

| SMILES | IC50 (CDK1/cyclin B) [nM] | melting point | IC50 (GSK-3α/β; 15 μM ATP, Table 1) [nM] | IC50 (CDK5/p25) [nM] | IC50 (GSK-3α/β) [nM] |
| --- | --- | --- | --- | --- | --- |
| COc1ccc(-c2[nH]c3nccnc3c2C)cc1 [27 (RP95), 6-(4-Methoxyphenyl)-7-methyl[5H]pyrrolo[2,3-b]pyrazine] | 300 | 221.6 °C | 460 |  |  |
| Br.Cc1c(-c2ccc(O)cc2)[nH]c2nccnc12 [28 (RP96), 6-(4-Hydroxyphenyl)-7-methyl[5H]pyrrolo[2,3-b]pyrazine hydrobromide] | 250 | 262 °C (dec.) | 520 |  |  |
| COc1ccc(-c2[nH]c3nccnc3c2C)cc1OC [29 (RP123), 6-(3,4-Methoxyphenyl)-7-methyl[5H]pyrrolo[2,3-b]pyrazine] | 1100 | 230.2 °C | 2000 |  |  |
| Cc1c(-c2ccc(Cl)cc2)[nH]c2nccnc12 [30 (RP80), 6-(4-Chlorophenyl)-7-methyl[5H]pyrrolo[2,3-b]pyrazine] |  | 260 °C (dec.) | 1700 |  |  |
| Cc1c(-c2ccc(OS(=O)(=O)N(C)C)cc2)[nH]c2nccnc12 [31 (RP125), 6-(4-Dimethylaminosulfamoyloxyphenyl)-7-methyl[5H]pyrrolo[2,3-b]pyrazine] | 700 |  | 500 | 900 |  |
| CCCc1c(-c2ccc(OC)cc2)[nH]c2nccnc12 [32 (RP127)] | 400 | 188.5 °C | 400 |  |  |
| Br.CCCc1c(-c2ccc(O)cc2)[nH]c2nccnc12 [33 (RP132), 6-(4-Hydroxyphenyl)-7-propyl[5H]pyrrolo[2,3-b]pyrazine hydrobromide] | 25000 | 244 °C (dec.) | 1800 |  |  |
| C=CCc1c(-c2ccc(OC)cc2)[nH]c2nccnc12 [34 (RP110), 7-Allyl-6-(4-methoxyphenyl)[5H]pyrrolo[2,3-b]pyrazine] | 1000 | 193.8 °C | 600 |  |  |
| COc1ccc(-c2[nH]c3nccnc3c2CCCCl)cc1 [35 (RP126), 7-(3-Chloropropyl)-6-(4-methoxyphenyl)[5H]pyrrolo[2,3-b]pyrazine] |  | 178 °C (dec.) | 2500 |  |  |
| COc1ccc(-c2[nH]c3nccnc3c2C(C)C)cc1 [36 (RP102), 7-Isopropyl-6-(4-methoxyphenyl)[5H]pyrrolo[2,3-b]pyrazine] |  | 204.8 °C | 500 |  |  |
| CC(C)c1c(-c2ccc(Cl)cc2)[nH]c2nccnc12 [37 (RP90), 6-(4-Chlorophenyl)-7-isopropyl[5H]pyrrolo[2,3-b]pyrazine] | 850 | 208.6 °C | 750 |  |  |
| CCCCc1c(-c2ccc(OC)cc2)[nH]c2nccnc12 [38 (RP106), 7-n-Butyl-6-(4-methoxyphenyl)[5H]pyrrolo[2,3-b]pyrazine] |  |  | 920 |  |  |
| COc1ccc(-c2c(C)c3nccnc3n2C2CC2)cc1 [42 (RP104), 6-(4-Methoxyphenyl)-7-methylcyclopropyl[5H]pyrrolo[2,3-b]pyrazine] | 1000 |  | 1100 | > 100000 |  |
| Oc1ccc(-c2[nH]c3nccnc3c2CC2CC2)cc1 [43 (RP112), 6-(4-Hydroxyphenyl)-7-methylcyclopropyl[5H]pyrrolo[2,3-b]pyrazine hydrobromide] | 50000 |  | 3000 | > 100000 |  |
| Clc1ccc(-c2[nH]c3nccnc3c2Cc2ccccc2)cc1 [45 (RP91), 7-Benzyl-6-(4-chlorophenyl)[5H]pyrrolo[2,3-b]pyrazine] |  | 266.3 °C | 6800 | > 100000 |  |
| COc1ccc(-c2c(C)c3nccnc3n2C2CCCCC2)cc1 [46 (RP98), 6-(4-Methoxyphenyl)-7-methylcyclohexyl[5H]pyrrolo[2,3-b]pyrazine] | 5000 |  | 6800 | > 100000 |  |
| Cc1c(-c2ccc(Cl)cc2)n(C2CCCCC2)c2nccnc12 [47 (RP99), 6-(4-Chlorophenyl)-7-methylcyclohexyl[5H]pyrrolo[2,3-b]pyrazine] | 10000 |  | 8000 | > 100000 |  |
| Cn1c(-c2ccccc2)cc2nccnc21 [48 (RP22)] |  |  | > 100000 | 7000 |  |
| Cc1c(C2(c3ccc(Cl)cc3)CC2)[nH]c2nccnc12 [49 (RP130)] |  |  | 18000 |  |  |
